The target of test [1] is T1, nNOS (Rattus norvegicus, UniProt P29476). Kind of test: Time-dependent inactivation of nNOS (residual activity, oxyhemoglobin oxidation). The note with it: 25° C.; for inactivation of nNOS relative to 2.0 μM L-NMA (FIG. 2): 0.5 μM L-VNIO vs 2.0 μM L-NMA; for inactivation of nNOS (in words, FIG. 2): under the conditions examined. On the set-up: made in house; host or cells: stably transfected kidney 293 cells. The format is biochemical. How it is done:
Nitric oxide-mediated oxidation of oxyhemoglobin was monitored at 401 nm (ε=0.038 μM^-1); the reference cuvette contained a similar mixture without enzyme. Rates were measured and used to calculate the residual activity. The results are shown in FIG. 1 where for ln A/Ao in the legend for the vertical axis, A is the residual activity of NOS at the time indicated and Ao is the activity of NOS at time zero (i.e., initial activity).
Determinations were carried out as described in Example XI. The results are shown in FIG. 2 where in (A/Ao) means the same as in Example XI.
Testing was carried out to compare inactivation by L-VNIO of the nNOS, eNOS and iNOS isoforms. Determinations were carried out as set forth in Example XI except that the reaction mixtures for iNOS omitted CaCl2 and calmodulin.

The target in test [2] is T2, iNOS (Mus musculus, UniProt P29477). Nature of the test: biochemical.
T2 sequence (P29477 whole entry): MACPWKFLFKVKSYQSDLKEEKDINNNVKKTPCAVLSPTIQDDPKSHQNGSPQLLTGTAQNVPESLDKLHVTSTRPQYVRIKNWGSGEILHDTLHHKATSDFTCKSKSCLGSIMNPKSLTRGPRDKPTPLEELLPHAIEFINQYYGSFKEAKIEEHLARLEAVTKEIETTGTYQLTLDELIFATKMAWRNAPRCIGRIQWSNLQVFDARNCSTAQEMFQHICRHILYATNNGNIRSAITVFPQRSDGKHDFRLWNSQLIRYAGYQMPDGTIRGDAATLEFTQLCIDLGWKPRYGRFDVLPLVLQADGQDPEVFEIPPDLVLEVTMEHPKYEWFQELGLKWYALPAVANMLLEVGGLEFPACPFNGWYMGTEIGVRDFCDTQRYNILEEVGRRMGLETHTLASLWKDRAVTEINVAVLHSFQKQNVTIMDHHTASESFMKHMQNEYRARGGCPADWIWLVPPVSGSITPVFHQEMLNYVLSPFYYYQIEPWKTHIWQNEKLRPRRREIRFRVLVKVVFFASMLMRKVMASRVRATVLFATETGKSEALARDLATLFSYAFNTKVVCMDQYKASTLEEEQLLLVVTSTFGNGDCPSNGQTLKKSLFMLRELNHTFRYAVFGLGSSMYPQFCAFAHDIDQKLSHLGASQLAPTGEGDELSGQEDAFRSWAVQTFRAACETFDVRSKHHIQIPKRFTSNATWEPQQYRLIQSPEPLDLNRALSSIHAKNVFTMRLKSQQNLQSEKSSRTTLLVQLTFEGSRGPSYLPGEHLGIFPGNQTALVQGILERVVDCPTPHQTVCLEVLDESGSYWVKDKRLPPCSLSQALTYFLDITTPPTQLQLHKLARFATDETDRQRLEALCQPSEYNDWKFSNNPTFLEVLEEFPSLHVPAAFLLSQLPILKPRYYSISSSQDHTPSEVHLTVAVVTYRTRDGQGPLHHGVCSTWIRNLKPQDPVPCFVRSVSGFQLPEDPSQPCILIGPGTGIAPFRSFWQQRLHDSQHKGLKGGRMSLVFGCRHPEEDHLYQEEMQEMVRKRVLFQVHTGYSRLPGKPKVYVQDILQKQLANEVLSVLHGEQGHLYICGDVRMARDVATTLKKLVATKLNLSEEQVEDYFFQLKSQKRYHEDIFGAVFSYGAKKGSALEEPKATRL
Description: (§1) For determination of Ki of a compound, activity of NOS is determined by monitoring the conversion of L-[^14 C]arginine to L-[^14 C]citrulline. […] Reaction mixtures for iNOS are similar, but CaCl2 and calmodulin are omitted. Reaction is initiated by the addition of the enzyme, and the solutions are maintained at 25° C. for 4 min. Reaction mixtures are quenched by the addition of 200 μl of stop buffer containing 100 mM Na^+ Hepes buffer, pH 5.5, and 5 mM ethylene glycol bis (β-aminoethylether)-N,N,N',N"-tetraacetic acid (EGTA). The resulting samples are heated in a boiling water bath for 1 minute and chilled and centrifuged. A portion (225 μl) of the supernatant is applied to small Dowex 50 columns (Na^+ form, 1 ml resin), and the product L-[^14 C]citrulline is eluted with 2 ml of water and quantified by liquid scintillation counting.
Test [3] concerns the target T1, nNOS. Kind of test: biochemical.
Description: as §1
Test [4] has as its target T3, eNOS (Bos taurus, UniProt P29473). The note with it: for eNOS Ki/Km: Ki divided by Km for L-arginine.
Description: as §1
In test [5] the target is T3, eNOS. Kind of test: biochemical.
Description: as §1
Test [6] deals with T1, nNOS. The note with it: for nNOS Ki/Km: Ki divided by Km for L-arginine; for selectivity for nNOS (in words): vs eNOS (and iNOS for L-VNIO), on a Ki/Km basis.
Description: as §1
Test [7] addresses T2, iNOS. The settings on record: for iNOS Ki/Km: Ki divided by Km for L-arginine.
Description: as §1
Test [8] can be described thus: Migraine headache treatment of a patient with L-VNIO tablets. The test is classed as in vivo, human. The method, then: A person with a history of migraine headaches is provided with tablets containing 500 mg of L-VNIO. They are instructed to take one tablet at the first sign of migraine headache development and to take a second table 60 minutes later if the headache continues to develop. When a right-sided migraine headache begins, they take one tablet as instructed, and headache pain begins to decrease within 15 minutes and is absent within 45 minutes. […] The women therefore takes a second table as instructed and headache pain is absent within 30 minutes of taking the second tablet.

For test [9], the target named is T3, eNOS. Nature of the test: Time-dependent inactivation of eNOS (residual activity, oxyhemoglobin oxidation). The format is biochemical, bovine. The note with it: 25° C.
Test [10] relates to female Sprague-Dawley CFY rats. Nature of the test: Stroke volume after carotid artery ligation in rats. The format is in vivo, rat. The note with it: 25 mg/kg i.v. bolus 30 minutes after occlusion; histology 24 hours after artery occlusion. The method, then:
Both carotid arteries are ligated in two groups of female Sprague-Dawley CFY rats. After 10 minutes, ligations are released and flow is again allowed.
In the case of one group, L-VNIO (25 mg/kg) is administered by bolus injection through a venous catheter 30 minutes after occlusion of the arteries. In the case of the other group, no therapeutic agent is administered.

Test [11] deals with T2, iNOS. Kind of test: Time-dependent inactivation of iNOS (residual activity, oxyhemoglobin oxidation; CaCl2 and calmodulin omitted). The test is classed as biochemical. The note with it: up to 100 μM L-VNIO, 25° C.
[12] abbreviates: first migraine, one 500 mg tablet.

Where two headings read alike, the source gives them in different places. A value given as a limit tells only on which side of the number the result lay.

T1 sequence (P29476 whole entry): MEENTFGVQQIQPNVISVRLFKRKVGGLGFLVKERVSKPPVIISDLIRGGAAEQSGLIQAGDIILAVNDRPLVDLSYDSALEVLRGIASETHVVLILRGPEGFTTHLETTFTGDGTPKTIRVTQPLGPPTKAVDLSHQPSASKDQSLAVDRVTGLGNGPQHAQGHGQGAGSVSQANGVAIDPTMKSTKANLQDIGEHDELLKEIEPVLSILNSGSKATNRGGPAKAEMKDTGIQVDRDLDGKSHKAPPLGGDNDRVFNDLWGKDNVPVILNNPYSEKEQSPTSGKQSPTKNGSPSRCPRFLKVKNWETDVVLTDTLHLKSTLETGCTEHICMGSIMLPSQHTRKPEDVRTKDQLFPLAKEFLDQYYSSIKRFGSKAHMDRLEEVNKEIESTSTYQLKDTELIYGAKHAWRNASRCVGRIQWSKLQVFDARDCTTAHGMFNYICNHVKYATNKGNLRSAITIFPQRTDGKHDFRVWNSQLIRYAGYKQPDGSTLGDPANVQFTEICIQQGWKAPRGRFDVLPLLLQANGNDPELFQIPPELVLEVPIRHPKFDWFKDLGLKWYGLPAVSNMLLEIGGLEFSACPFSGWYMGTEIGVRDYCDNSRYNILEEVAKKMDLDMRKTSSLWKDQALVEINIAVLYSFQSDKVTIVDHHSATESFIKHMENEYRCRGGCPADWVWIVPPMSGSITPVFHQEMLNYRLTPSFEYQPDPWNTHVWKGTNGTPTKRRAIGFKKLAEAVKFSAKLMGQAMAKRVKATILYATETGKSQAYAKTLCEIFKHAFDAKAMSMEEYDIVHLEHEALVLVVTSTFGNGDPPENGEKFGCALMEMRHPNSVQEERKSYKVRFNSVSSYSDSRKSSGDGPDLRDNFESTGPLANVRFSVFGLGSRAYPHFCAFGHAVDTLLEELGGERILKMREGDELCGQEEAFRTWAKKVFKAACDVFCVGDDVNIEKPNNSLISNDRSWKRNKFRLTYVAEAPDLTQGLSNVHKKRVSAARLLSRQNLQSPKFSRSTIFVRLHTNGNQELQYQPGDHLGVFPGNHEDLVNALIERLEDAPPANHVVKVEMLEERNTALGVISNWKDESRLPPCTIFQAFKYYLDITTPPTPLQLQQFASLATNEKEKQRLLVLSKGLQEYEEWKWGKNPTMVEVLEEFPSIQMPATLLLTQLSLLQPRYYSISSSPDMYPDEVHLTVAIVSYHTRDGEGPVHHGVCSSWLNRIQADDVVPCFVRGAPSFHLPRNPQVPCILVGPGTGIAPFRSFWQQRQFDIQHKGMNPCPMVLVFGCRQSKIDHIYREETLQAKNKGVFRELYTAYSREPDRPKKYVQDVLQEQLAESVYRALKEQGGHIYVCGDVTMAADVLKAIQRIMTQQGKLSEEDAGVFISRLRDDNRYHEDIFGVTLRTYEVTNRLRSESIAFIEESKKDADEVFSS
T3 sequence (P29473 2-1205): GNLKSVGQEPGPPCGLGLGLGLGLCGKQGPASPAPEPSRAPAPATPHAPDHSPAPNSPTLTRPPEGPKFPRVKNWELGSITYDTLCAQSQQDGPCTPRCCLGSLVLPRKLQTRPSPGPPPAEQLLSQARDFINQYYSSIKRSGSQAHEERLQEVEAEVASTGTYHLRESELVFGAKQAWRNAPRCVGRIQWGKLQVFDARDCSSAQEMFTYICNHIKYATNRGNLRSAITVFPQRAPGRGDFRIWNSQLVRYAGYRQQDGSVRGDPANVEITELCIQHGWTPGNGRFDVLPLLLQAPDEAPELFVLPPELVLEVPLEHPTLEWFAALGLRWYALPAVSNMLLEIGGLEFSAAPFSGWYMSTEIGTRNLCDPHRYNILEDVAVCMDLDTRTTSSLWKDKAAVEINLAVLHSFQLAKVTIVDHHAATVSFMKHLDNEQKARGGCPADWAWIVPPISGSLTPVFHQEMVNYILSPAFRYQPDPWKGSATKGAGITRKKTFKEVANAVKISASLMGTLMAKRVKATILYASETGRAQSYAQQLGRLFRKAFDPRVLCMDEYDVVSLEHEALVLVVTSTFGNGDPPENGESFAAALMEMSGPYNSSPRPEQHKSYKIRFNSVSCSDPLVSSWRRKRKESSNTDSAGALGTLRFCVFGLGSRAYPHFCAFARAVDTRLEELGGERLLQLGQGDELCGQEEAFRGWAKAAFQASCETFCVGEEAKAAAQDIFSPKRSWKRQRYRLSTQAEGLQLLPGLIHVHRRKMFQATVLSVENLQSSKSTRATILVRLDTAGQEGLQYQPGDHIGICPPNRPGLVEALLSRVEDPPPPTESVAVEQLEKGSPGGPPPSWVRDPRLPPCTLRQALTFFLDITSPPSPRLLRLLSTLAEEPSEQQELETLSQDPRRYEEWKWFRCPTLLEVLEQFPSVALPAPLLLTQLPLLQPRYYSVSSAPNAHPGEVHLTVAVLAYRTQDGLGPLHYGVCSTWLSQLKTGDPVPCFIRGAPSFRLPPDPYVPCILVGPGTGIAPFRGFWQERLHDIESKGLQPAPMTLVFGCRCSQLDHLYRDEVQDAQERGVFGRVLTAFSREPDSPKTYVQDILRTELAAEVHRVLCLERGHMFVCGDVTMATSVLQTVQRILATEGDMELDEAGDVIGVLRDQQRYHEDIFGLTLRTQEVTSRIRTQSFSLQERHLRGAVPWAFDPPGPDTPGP

As to `CNC(=N)NCCC[C@H](N)C(=O)O` [L-NMA, N^ω -methyl-L-arginine, reference compound], the “inactivation of nNOS relative to 2.0 μM L-NMA (FIG. 2)” value at nNOS [1] is listed as “comparable”.
Usually Ki stands for a measure of affinity in units of concentration, obtained from inhibition or displacement. Consider `CCCC(=N)NCCC[C@H](N)C(=O)O` [ethyl-L-NIO, reference compound], for which the “inactivation of nNOS (in words, FIG. 2)” value at nNOS [1] is “does not inactivate nNOS”. Moreover, the Ki at iNOS [2] turned out to be 12 µM; on nNOS [3], 5.3 µM; at eNOS [5], 18 µM. Besides, the “eNOS Ki/Km” value at eNOS [4] came out at 5.00. For the same compound, at nNOS [6], the “nNOS Ki/Km” value was determined as 3.79. Also, the “selectivity for nNOS (in words)” value on nNOS [6] is reported as “do not show biologically significant selectivity for nNOS over eNOS”. Moreover, the “iNOS Ki/Km” value at iNOS [7] is 0.96. In addition, the “selectivity for iNOS over nNOS and eNOS” value on iNOS [7] (on a Ki/Km basis) lay within 3 to 5 fold.
On to `CC(=N)NCCC[C@H](N)C(=O)O` [L-NIO], for which the inhibition constant (Ki) on iNOS [2] and on eNOS [5] was 3.9 µM throughout.
For `CCC(=N)NCCC[C@H](N)C(=O)O` [methyl-L-NIO], the “inactivation of nNOS (in words, FIG. 2)” value on nNOS [1] is given as “much weaker inactivator of nNOS”. The inhibition constant Ki is 9.5 µM at iNOS [2] and 10 µM on eNOS [5].
For `C=CCC(=N)NCCC[C@H](N)C(=O)O` [L-VNIO, N^5-(1-imino-3-butenyl)-L-ornithine], on nNOS [1], the “inactivation of nNOS relative to 2.0 μM L-NMA (FIG. 2)” value is “comparable with that seen with 2.0 μM L-NMA”. Besides, the “inactivation of nNOS relative to 10 μM L-NIO (FIG. 2)” value at nNOS [1] (0.5 μM L-VNIO vs 10 μM L-NIO) is reported as “greater than that seen with 10 μM L-NIO”. Besides, the “inactivation of nNOS (FIG. 3)” value on nNOS [1] (0.5 μM L-VNIO) is “strong inactivator of nNOS”. Further, at nNOS [1] (L-VNIO 0.1-0.8 μM, D-VNIO 100 μM), the “inactivation of nNOS (FIG. 1)” value is “caused a first-order inactivation of nNOS”. For the same compound, in [8] (setting [12]), the “time until headache pain begins to decrease” value is at most 15 min. Moreover, the “time until headache pain is absent” value in [8] (setting [12]) was at most 45 min. The “pain relief by the first tablet, following day” value in test [8] (following day, first 500 mg tablet) was “pain is not fully alleviated by the first tablet”. Also, in test [8] (following day, second 500 mg tablet 60 minutes after first), the “time until headache pain is absent after the second tablet” value was at most 30 min. Further, the “eNOS Ki/Km” value on eNOS [4] is given as 3.33. At eNOS [4] (conclusion from Table I), the “inhibition of eNOS (in words)” value is recorded as “poor inhibitor of eNOS”. For the same compound, the inhibitory constant (Ki) on eNOS [5] was 12 µM; on nNOS [6] (read-out: nNOS Ki, rat nNOS, 25° C., pH 7.4, initial rate conditions, duplicates agreed within ±5%), 0.1 µM; on iNOS [7] (read-out: iNOS Ki, mouse iNOS, 25° C., pH 7.4, initial rate conditions, duplicates agreed within ±5%) it was 60 µM. Besides, the “inactivation of eNOS (FIG. 3)” value on eNOS [9] (10 μM L-VNIO) is given as “relatively weak inactivator of eNOS”. Moreover, on eNOS [9] (20-fold higher concentration of L-VNIO: 10 μM eNOS vs 0.5 μM nNOS), the “rate of inactivation of eNOS compared with nNOS (FIG. 3)” value is recorded as “does not match that seen with nNOS”. The “nNOS Ki/Km” value at nNOS [6] is on record as 0.07. For the same compound, the “inhibition of nNOS (in words)” value at nNOS [6] (conclusion from Table I) was “potent inhibitor of nNOS”. In addition, on nNOS [6], the “selectivity for nNOS (in words)” value is “selective inhibitor of nNOS”. Also, at iNOS [7], the “iNOS Ki/Km” value was 4.80. Further, the “inhibition of iNOS (in words)” value against iNOS [7] (conclusion from Table I) was “poor inhibitor of eNOS and INOS”. The “stroke volume compared to group receiving no treatment” value in test [10] is “significant reduction in stroke volume”. Also, at iNOS [11], the “inactivation of iNOS (FIG. 3)” value is “does not inactivate iNOS”.

Values taken from patent US6127420A, “L-N^5 -(1-imino-3-alkenyl) ornithine and related compounds and use thereof” (priority 1998, dated 2000).
